This passage reports inhibition results from patent US11905279B1, “Benzylidene derivatives of fenobam as anti-inflammatory agents” (KING FAISAL UNIVERSITY, priority 2023, dated 2024).

The target in one experiment is T1, human COX-2 (Homo sapiens, UniProt P35354).
T1 construct: purchased
T1 sequence (P35354 18-604): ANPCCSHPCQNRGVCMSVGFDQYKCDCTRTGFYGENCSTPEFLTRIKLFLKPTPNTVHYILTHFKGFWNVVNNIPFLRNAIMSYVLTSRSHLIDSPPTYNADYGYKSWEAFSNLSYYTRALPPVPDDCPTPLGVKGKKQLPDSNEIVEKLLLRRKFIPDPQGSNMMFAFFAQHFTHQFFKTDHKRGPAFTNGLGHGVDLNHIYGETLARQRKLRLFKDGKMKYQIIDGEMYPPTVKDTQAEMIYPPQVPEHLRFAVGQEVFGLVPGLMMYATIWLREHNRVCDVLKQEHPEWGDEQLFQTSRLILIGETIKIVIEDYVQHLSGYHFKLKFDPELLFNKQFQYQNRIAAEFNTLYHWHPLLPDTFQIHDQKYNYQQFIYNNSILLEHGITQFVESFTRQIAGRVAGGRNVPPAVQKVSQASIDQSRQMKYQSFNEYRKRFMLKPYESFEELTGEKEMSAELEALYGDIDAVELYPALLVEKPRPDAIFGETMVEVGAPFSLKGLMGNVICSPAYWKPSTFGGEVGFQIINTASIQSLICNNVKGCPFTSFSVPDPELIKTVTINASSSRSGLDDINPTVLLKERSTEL
In words: Cyclooxygenase (COX-2) enzyme inhibition assay, COX (human) Inhibitor Screening Assay Kit. It is filed as biochemical. As to conditions: compound at 10 μM; in vitro, human COX-2 isoenzyme; ELISA incubation 18 hours; read-out: % Inhibition( COX2) Mean ± SEM. How it is done:
(§1) According to manufacturer instructions, a COX inhibition assay was performed using COX (human) Inhibitor Screening Assay Kit for the compounds 5c, 5d, 5h, 5k, 5l, 5m, and 6d. All reagents and buffers were prepared in ultrapure water. All stock solutions of the compounds and the positive controls (Indomethacin and Celecoxib) were dissolved in DMSO. In each inhibitor sample tube, 160 μL reaction buffer, 10 μL of heme, 10 μL of diluted COX-1 or COX-2 enzyme, and 10 μL of the diluted inhibitor was added to get a final concentration of 100 μM. […] 10 μL of the vehicle control (DMSO) was added to the background tubes, and COX enzyme's 100% initial activity was obtained. All reaction tubes were incubated for 10 minutes at 37° C. Following this incubation, 10 μL of the substrate, arachidonic acid (AA), was added to all test tubes, mixed, and further incubated for precisely 30 seconds at 37° C. Then, 30 μL of SnCl2 solution was added to each reaction tube to stop the enzyme catalysis. All reaction tubes were removed from the incubator, vortexed, and incubated again for 5 min at room temperature. Reaction tubes were stored at 4° C. to quantify the prostaglandin formation by competitive enzyme-linked immunosorbent assay (ELISA). ELISA standards were prepared in test tubes to perform the competitive ELISA, and dilutions were prepared with the ELISA buffer. The standards, COX reaction dilutions, and background samples were serially diluted. After that, 50 μL of the diluted standards, COX background, COX 100% initial activity, and COX inhibitor samples were transferred to the corresponding wells of 96 well ELISA plate. Blank (to assess the background absorbance caused by Ellman's reagent) and total activity (TA) (to determine the enzymatic activity of the AChE-linked tracer) wells were left empty, 100 μL and 50 μL of the ELISA buffer were added to the nonspecific binding (NSB) and maximum binding (BO), respectively. Prostaglandin screening AChE tracer (50 μL) and prostaglandin screening ELISA antiserum (50 μL) were added to corresponding wells except for TA. The plate was covered with a plastic film, wrapped with foil to protect from light, and incubated for 18 hours at room temperature. Following incubation, the plate was washed and developed with 200 μL of Ellman's reagent to all wells, and 5 μL of tracer was added to TA well. The plate was covered with foil, placed on an orbital shaker, and incubated for 60-90 minutes. Finally, the plate reading was done at a wavelength of 405 nm with a Microplate reader from BioTek (by Agilent), and data were collected using Gen5™ (by Agilent) analysis software.
(§2) In vitro catalytic inhibition data of compounds 5c, 5d, 5h, 5k, 5l, 5m, and 6d at 10 μM against human COX-1 and COX-2 isoenzymes is listed in Table 1.

For the next experiment, the target named is T2, human COX-1 (Homo sapiens, UniProt P23219).
T2 construct: purchased
In words: Cyclooxygenase (COX-1) enzyme inhibition assay, COX (human) Inhibitor Screening Assay Kit. Type of experiment: biochemical. As to conditions: compound at 10 μM; in vitro, human COX-1 isoenzyme; ELISA incubation 18 hours; read-out: % Inhibition( COX1) Mean ± SEM. How it is done:
as §1, §2

Molecules are shown by their SMILES.

T2 sequence (P23219 24-599): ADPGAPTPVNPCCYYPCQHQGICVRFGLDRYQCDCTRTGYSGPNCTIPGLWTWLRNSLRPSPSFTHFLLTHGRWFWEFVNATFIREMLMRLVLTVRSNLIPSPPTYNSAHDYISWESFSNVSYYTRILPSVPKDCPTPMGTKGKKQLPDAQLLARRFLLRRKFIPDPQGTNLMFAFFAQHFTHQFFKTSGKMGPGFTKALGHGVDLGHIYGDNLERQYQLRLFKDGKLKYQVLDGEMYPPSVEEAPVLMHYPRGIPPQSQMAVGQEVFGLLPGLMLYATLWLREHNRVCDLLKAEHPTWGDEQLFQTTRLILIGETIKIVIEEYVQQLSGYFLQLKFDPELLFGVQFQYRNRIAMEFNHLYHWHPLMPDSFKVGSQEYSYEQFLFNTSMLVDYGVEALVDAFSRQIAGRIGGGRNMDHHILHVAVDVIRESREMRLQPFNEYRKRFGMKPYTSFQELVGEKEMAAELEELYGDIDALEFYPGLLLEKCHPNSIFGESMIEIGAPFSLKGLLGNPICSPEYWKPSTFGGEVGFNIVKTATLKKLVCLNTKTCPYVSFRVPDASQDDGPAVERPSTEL

One may read the inhibition as the drop in the measured response relative to a control, in per cent. In the case of `CN1/C(=C\c2ccc(Br)o2)C(=O)N/C1=N\C(=O)Nc1ccccc1F` [Compound 5c, 1-{(2E,5Z)-5-[(5-Bromofuran-2-yl)methylidene]-1-methyl-4-oxoimidazolidin-2-ylidene}-3-(2-fluorophenyl)urea], the results for the inhibition at 10 µM at human COX-2 and on human COX-1 were 78 ± 15.5% and 17 ± 6.5%, respectively.

Consider `CN1/C(=C\c2ccc(-c3ccccc3[N+](=O)[O-])o2)C(=O)N/C1=N\C(=O)Nc1ccccc1F` [Compound 5d, 1-(2-Fluorophenyl)-3-[(2E,5Z)-1-methyl-5-{[5-(2-nitrophenyl)furan-2-yl]methylidene}-4-oxoimidazolidin-2-ylidene]urea], for which the inhibition at 10 µM stood at 97 ± 0.5% at human COX-2 and 57 ± 0.15% on human COX-1.

Turning to `CN1/C(=C\c2ccc(-c3ccccc3[N+](=O)[O-])o2)C(=O)N/C1=N\C(=O)Nc1cccc(F)c1` [Compound 5h, 1-(3-Fluorophenyl)-3-[(2E,5Z)-1-methyl-5-{[5-(2-nitrophenyl)furan-2-yl]methylidene}-4-oxoimidazolidin-2-ylidene]urea], the inhibition at 10 µM at human COX-2 is 39 ± 2%; at human COX-1 it was 51 ± 7%.

As to `CN1/C(=C\c2ccc(Br)o2)C(=O)N/C1=N\C(=O)Nc1ccc(F)cc1` [Compound 5k, 1-{(2E,5Z)-5-[(5-Bromofuran-2-yl)methylidene]-1-methyl-4-oxoimidazolidin-2-ylidene}-3-(4-fluorophenyl)urea], the inhibition at 10 µM worked out at 89 ± 3% on human COX-2 and 26 ± 6.5% at human COX-1.

Consider `CN1/C(=C\c2ccc(-c3ccccc3[N+](=O)[O-])o2)C(=O)N/C1=N\C(=O)Nc1ccc(F)cc1` [Compound 5l, 1-(4-Fluorophenyl)-3-[(2E,5Z)-1-methyl-5-{[5-(2-nitrophenyl)furan-2-yl]methylidene}-4-oxoimidazolidin-2-ylidene]urea], for which the inhibition at 10 µM was found to be 20 ± 5.5% at human COX-2 and 31 ± 2.5% at human COX-1.

Consider `CN1/C(=C\c2ccc([N+](=O)[O-])cc2)C(=O)N/C1=N\C(=O)Nc1ccc(Cl)cc1Cl` [Compound 5m, 1-(2,4-Dichlorophenyl)-3-[(2E,5Z)-1-methyl-5-(4-nitrobenzylidene)-4-oxoimidazolidin-2-ylidene]urea], for which the inhibition at 10 µM amounted to 69 ± 2.5% on human COX-2 and 5 ± 23.5% at human COX-1.

For `CN1/C(=C\c2ccc(-c3ccccc3[N+](=O)[O-])o2)C(=O)N/C1=N\C(=S)Nc1cccc(Cl)c1` [Compound 6d, 1-(3-Chlorophenyl)-3-[(2E,5Z)-1-methyl-5-{[5-(2-nitrophenyl)furan-2-yl]methylidene}-4-oxoimidazolidin-2-ylidene]thiourea], the values for the inhibition at 10 µM on human COX-2 and at human COX-1 were 54 ± 8.5% and -14 ± 5.5%, respectively.
